Target: T1, human vasopressin V1a receptor subtype (Homo sapiens, UniProt P37288)
T1 construct: host or cells: CHO cells (pZeoSV vector for the Thibonnier line)
Assay: Vasopressin binding in Chinese Hamster Ovary cell membranes expressing human vasopressin V1a subtype receptors
Conditions: 100 nM, CHO cell membranes, [3H]Manning ligand, values without parentheses
Method in brief: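 Displacement of [3H]Manning ligand (8 nM working solution) from human V1a receptors in CHO cell membranes, 25–50 μg protein per well. Incubation ran 60 min at room temperature in 50 mM Tris-HCl pH 7.4 with protease inhibitors, followed by filtration and scintillation counting. Results are given as IC50 or percent inhibition.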

T1 sequence (P37288 whole entry): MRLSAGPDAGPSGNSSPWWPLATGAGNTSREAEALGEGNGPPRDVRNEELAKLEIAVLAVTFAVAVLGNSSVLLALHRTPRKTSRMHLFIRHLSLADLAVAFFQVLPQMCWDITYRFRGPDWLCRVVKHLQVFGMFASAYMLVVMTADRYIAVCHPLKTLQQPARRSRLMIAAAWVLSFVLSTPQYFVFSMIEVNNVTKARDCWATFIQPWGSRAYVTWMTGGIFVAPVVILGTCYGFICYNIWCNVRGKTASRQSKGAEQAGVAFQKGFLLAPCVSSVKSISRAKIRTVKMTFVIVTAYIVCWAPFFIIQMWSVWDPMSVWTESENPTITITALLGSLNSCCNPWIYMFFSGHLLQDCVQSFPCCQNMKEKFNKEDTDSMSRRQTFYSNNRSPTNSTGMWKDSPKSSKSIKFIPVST

| SMILES | inhibition at 0.1 µM [%] | V1a % inhibition @ 100 nM [%] |
| --- | --- | --- |
| COc1cccc(-c2cc(OC)c(C(=O)N3Cc4ccc(C(=O)N5CCC(N6CCCC6)CC5)n4Cc4ccccc43)cc2Cl)c1 [Example 143, {10-[(6-Chloro-3,3′-dimethoxy[1,1′-biphenyl]-4-yl)carbonyl]-10,11-dihydro-5H-pyrrolo[2,1-c][1,4]benzodiazepin-3-yl}[4-(1-pyrrolidinyl)-1-piperidinyl]methanone] | -3 | – |
| COc1ccccc1-c1ccc(C(=O)N2Cc3ccc(C(=O)N4CCC(N5CCCC5)CC4)n3Cc3ccccc32)cc1 [Example 140, {10-[(2′-Methoxy[1,1′-biphenyl]-4-yl)carbonyl]-10,11-dihydro-5H-pyrrolo[2,1-c][1,4]benzodiazepin-3-yl}[4-(1-pyrrolidinyl)-1-piperidinyl]methanone] | 24 | – |
| COc1ccccc1-c1ccc(C(=O)N2Cc3ccc(C(=O)N4CCC[C@H]4CN4CCCC4)n3Cc3ccccc32)cc1C [Example 259, {10-[(2′-Methoxy-2-methyl[1,1′-biphenyl]-4-yl)carbonyl]-10,11-dihydro-5H-pyrrolo[2,1-c][1,4]benzodiazepin-3-yl}[(2S)-2-(1-pyrrolidinylmethyl)pyrrolidinyl]methanone] | – | 21 |
| COc1cccc(-c2cc(OC)c(C(=O)N3Cc4ccc(C(=O)N5CC[C@@H](N(C)C)C5)n4Cc4ccccc43)cc2Cl)c1 [Example 275, {10-[(6-Chloro-3,3′-dimethoxy[1,1′-biphenyl]-4-yl)carbonyl]-10,11-dihydro-5H-pyrrolo[2,1-c][1,4]benzodiazepin-3-yl}[(3R)-3-(dimethylamino)pyrrolidinyl]methanone] | – | 9 |
| COc1cccc(-c2ccc(C(=O)N3Cc4ccc(C(=O)N5CCC(N6CCCC6)CC5)n4Cc4ccccc43)cc2OC)c1 [Example 146, {10-[(2,3′-Dimethoxy[1,1′-biphenyl]-4-yl)carbonyl]-10,11-dihydro-5H-pyrrolo[2,1-c][1,4]benzodiazepin-3-yl}[4-(1-pyrrolidinyl)-1-piperidinyl]methanone] | 37 | – |
| Cc1cc(C(=O)N2Cc3ccc(C(=O)NCCCN(C)C)n3Cc3ccccc32)ccc1-c1ccccc1C(F)(F)F [Example 84, N-[3-(Dimethylamino)propyl]-10-{[2-methyl-2′-(trifluoromethyl)[1,1′-biphenyl]-4-yl]carbonyl}-10,11-dihydro-5H-pyrrolo[2,1-c][1 .4]benzodiazepine-3-carboxamide] | – | 1 |
| COc1ccccc1-c1ccc(C(=O)N2Cc3ccc(C(=O)N4CCC[C@H]4CN4CCCC4)n3Cc3ccccc32)cc1 [Example 265, {10-[(2′-Methoxy[1,1′-biphenyl]-4-yl)carbonyl]-10,11-dihydro-5H-pyrrolo[2,1-c][1,4]benzodiazepin-3-yl}[(2S)-2-(1-pyrrolidinylmethyl)pyrrolidinyl]methanone] | – | 31 |

The next lines start with results.

| inhibition at 0.1 µM [%] | SMILES | V1a % inhibition @ 100 nM [%] |
| --- | --- | --- |
| 42 | COc1cc(C(=O)N2Cc3ccc(C(=O)N4CCC(N5CCCCC5)CC4)n3Cc3ccccc32)ccc1-c1ccccc1C [Example 116, {10-[(2-Methoxy-2′-methyl[1,1′-biphenyl]-4-yl)carbonyl]-10,11-dihydro-5H-pyrrolo[2,1-c][1,4]benzodiazepin-3-yl}[4-(1-piperidinyl)-1-piperidinyl]methanone] | – |
| 17 | COc1ccccc1-c1ccc(C(=O)N2Cc3ccc(C(=O)NCCN4CCCCC4)n3Cc3ccccc32)cc1C [Example 149, 10-[(2′-Methoxy-2-methyl[1,1′-biphenyl]-4-yl)carbonyl]-N-[2-(1-piperidinyl)ethyl]-10,11-dihydro-5H-pyrrolo[2,1-c][1,4]benzodiazepine-3-carboxamide] | – |
| 46 | COc1cc(C(=O)N2Cc3ccc(C(=O)N4CCC(N5CCCC5)CC4)n3Cc3ccccc32)ccc1-c1ccccc1C [Example 142, {10-[(2-Methoxy-2′-methyl[1,1′-biphenyl]-4-yl)carbonyl]-10,11-dihydro-5H-pyrrolo[2,1-c][1,4]benzodiazepin-3-yl}[4-(1-pyrrolidinyl)-1-piperidinyl]methanone] | – |
| 11 | Cc1ccccc1-c1ccc(C(=O)N2Cc3ccc(C(=O)N4CCC(N5CCCCC5)CC4)n3Cc3ccccc32)cc1 [Example 115, {10-[(2′-Methyl[1,1′-biphenyl]-4-yl)carbonyl]-10,11-dihydro-5H-pyrrolo[2,1-c][1,4]benzodiazepin-3-yl}[4-(1-piperidinyl)-1-piperidinyl]methanone] | – |
| 2 | Cc1cc(C(=O)N2Cc3ccc(C(=O)NCCCn4ccnc4)n3Cc3ccccc32)ccc1-c1ccccc1C(F)(F)F [Example 135, N-[3-(1H-Imidazol-1-yl)propyl]-10-{[2-methyl-2′-(trifluoromethyl)[1,1′-biphenyl]-4-yl]carbonyl}-10,11-dihydro-5H-pyrrolo[2,1-c][1,4]benzodiazepine-3-carboxamide] | – |
| -1 | COc1cc(C(=O)N2Cc3ccc(C(=O)N4CCC(N5CCCC5)CC4)n3Cc3ccccc32)ccc1-c1cccc2ccccc12 [Example 144, {10-[3-Methoxy-4-(1-naphthyl)benzoyl]-10,11-dihydro-5H-pyrrolo[2,1-c][1,4]benzodiazepin-3-yl}[4-(1-pyrrolidinyl)-1-piperidinyl]methanone] | – |

From patent US7109193B2, “Tricyclic diazepines tocolytic oxytocin receptor antagonists” (Wyeth, priority 2001, dated 2006)
